“Also recorded” adds a separate entry of the source.

In test [1] the target is T1, F508del-CFTR (Homo sapiens, UniProt P13569, DEL508-508). Nature of the test: Transepithelial short-circuit current in primary nasal epithelial cells of F508del homozygous CF patient. The test is classed as cell-based. Also noted: endogenous in cells; host or cells: primary bronchial and nasal epithelial cells from CF patients homozygous for F508del. As to conditions: FIG. 3C. From the text: The culture and functional study of human primary nasal and bronchial epithelial cells have been described in detail above (Scudieri P, et al. J Physiol. 2012, 590, 6141-6155). Briefly, nasal epithelial cells were taken after informed consent using the “brushing” technique. Bronchial cells were instead obtained by proteolytic digestion of bronchi isolated from the lungs of patients (suffering from CF or other pulmonary pathology (idiopathic pulmonary fibrosis, pulmonary hypertension, emphysema) subjected to transplant operations. The informed consent of the patients was obtained also in this case. After isolation, epithelial cells were cultured in a liquid medium of defined serum-free composition. This medium consists of a mixture of LHC9/RPMI 1640 (1:1) enriched with various hormones and growth factors (Scudieri P, et al. J Physiol. 2012, 590, 6141-6155). After 3-5 passages, necessary for the expansion of the initial number, the cells were seeded at high density on Snapwell porous supports (Corning, 3801). After 24 hours, the culture medium was replaced by a mixture consisting of DMEM and Ham's F12 (1:1) enriched with 2% foetal bovine serum and other supplements. […] With this mode, the transepithelial potential difference is locked to zero and the resulting current, supplied by the Voltage Clamp is recorded by an AD/DA converter (PowerLab, ADInstruments).
T1 sequence (P13569 with tags, fused parts or gaps DEL508-508): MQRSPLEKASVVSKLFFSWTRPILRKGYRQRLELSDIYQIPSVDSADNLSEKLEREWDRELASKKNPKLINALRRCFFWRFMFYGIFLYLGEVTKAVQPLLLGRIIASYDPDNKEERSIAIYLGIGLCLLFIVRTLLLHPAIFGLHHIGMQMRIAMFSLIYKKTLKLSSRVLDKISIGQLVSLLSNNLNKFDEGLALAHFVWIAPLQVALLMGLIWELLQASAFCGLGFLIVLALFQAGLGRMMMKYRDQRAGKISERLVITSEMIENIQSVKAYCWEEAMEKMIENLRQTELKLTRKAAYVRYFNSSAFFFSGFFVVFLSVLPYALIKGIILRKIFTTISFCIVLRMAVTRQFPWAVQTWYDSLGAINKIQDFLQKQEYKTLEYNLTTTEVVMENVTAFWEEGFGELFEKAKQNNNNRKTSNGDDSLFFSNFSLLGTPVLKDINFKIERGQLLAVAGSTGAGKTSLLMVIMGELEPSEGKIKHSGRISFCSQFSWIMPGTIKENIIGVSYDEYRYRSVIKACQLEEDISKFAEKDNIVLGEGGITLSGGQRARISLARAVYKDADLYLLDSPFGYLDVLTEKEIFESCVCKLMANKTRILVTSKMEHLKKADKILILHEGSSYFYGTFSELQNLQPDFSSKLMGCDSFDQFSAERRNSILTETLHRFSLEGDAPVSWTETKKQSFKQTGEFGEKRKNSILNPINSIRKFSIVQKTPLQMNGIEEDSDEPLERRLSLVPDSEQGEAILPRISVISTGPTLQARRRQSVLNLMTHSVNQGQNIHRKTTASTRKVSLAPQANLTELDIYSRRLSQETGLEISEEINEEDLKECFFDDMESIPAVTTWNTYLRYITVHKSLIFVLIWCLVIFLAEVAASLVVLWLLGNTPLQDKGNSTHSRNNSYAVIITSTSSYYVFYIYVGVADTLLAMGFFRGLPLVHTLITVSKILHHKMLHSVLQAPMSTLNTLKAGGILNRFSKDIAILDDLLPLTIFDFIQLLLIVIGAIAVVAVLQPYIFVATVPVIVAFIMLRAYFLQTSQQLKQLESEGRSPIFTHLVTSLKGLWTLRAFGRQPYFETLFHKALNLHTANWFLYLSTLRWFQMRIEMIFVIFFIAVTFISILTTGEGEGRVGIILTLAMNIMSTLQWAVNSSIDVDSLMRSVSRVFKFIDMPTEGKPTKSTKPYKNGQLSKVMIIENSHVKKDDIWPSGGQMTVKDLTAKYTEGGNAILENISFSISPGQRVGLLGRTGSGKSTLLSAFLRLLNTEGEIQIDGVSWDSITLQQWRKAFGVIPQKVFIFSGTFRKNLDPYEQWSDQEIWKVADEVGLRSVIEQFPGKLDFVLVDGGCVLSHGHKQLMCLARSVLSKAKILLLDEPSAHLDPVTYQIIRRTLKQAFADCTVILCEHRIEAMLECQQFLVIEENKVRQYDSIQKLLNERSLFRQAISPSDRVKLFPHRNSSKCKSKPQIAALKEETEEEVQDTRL

Test [2] has as its target T1, F508del-CFTR. The test is described as follows: Transepithelial short-circuit current in primary bronchial epithelial cells of F508del homozygous CF patient. The test is classed as cell-based. Also noted: endogenous in cells; host or cells: primary bronchial and nasal epithelial cells from CF patients homozygous for F508del. As for the experimental part: (§1) The culture and functional study of human primary nasal and bronchial epithelial cells have been described in detail above (Scudieri P, et al. J Physiol. 2012, 590, 6141-6155). Briefly, nasal epithelial cells were taken after informed consent using the “brushing” technique. […] With this mode, the transepithelial potential difference is locked to zero and the resulting current, supplied by the Voltage Clamp is recorded by an AD/DA converter (PowerLab, ADInstruments).
The cells were grown in such a way as to generate differentiated epithelia on porous supports (Snapwell). […] As a channel-protein able to mediate a chloride ion flux, CFTR activity is detected as a transepithelial ionic current. […]

The subject of test [3] is calcium-dependent chloride secretion. Nature of the test: Short-circuit current in bronchial epithelial cells: UTP-activated, inh-A01-inhibited chloride secretion. The test is classed as cell-based, human. As to conditions: compound 10 μM, activated with UTP. As for the experimental part: FIG. 3. PP008 corrective activity on primary epithelial cells. (A) The representative plots and (B) the bar chart show the results obtained by treating bronchial epithelial cells from a patient homozygous for the mutation F508del with PP008 (10 μM) in the presence and absence of VX-809 (1 μM). As control, cells were treated for 24 h with vehicle alone (dimethylsufoxide, DMSO) at the same concentration (0.1%) used to add test compounds. […] (C) Results obtained on nasal epithelial cells of a homozygous F508del patient. *, p<0.05; ***, p<0.001.
as §1

Test [4] deals with G542X-CFTR. Nature of the test: HS-YFP assay in null CFBE41o− cells transfected with G542X-CFTR. The test is classed as cell-based. As for the experimental part:
To assess the function and pharmacological sensitivity of G542X-CFTR mutant, inventors used the null version of CFBE41o− cells, i.e. cells with negligible expression of endogenous CFTR and without HS-YFP. Such cells were transiently transfected with the plasmid coding for HS-YFP alone or in combination with: empty plasmid, plasmid coding for wild type CFTR, or plasmid coding for G542X-CFTR. For transfection, cells were seeded in 96-well microplates (30,000 cells/well) in 150 μl of antibiotic-free culture medium. After 24 hours, cells were transfected with the desired plasmids. For each well, 0.2 μg of total plasmid DNA and 0.5 μl of Lipofectamine 2000 (Invitrogen) were first pre-mixed in 50 μl of OPTIMEM (Invitrogen) to generate transfection complexes (60 minutes at room temperature), and then added to the cells. After 24 hour, the complexes were removed by replacement with fresh culture medium. The HS-YFP functional assay was performed after further 24 hours.
To assess the ability of compounds of present invention to improve the rescue of premature stop codon (class I) mutations, we carried out experiments on G542X-CFTR (FIG. 7). Null CFBE41o− cells, devoid of endogenous CFTR expression, were transiently transfected with empty, wild type CFTR or G542X-CFTR plasmids. All cells also received the HS-YFP plasmid to allow functional determination of CFTR-dependent anion transport. […] Where indicated, cells with G542X-CFTR were also treated with G418 (0.5 mg/ml) for 24 hr to induce readthrough of the stop codon mutation, with and without correctors (VX-809 and/or PP028, labeled as VX and PP). […] The activity resulting from wild type CFTR is also shown for comparison.

Take `CCOC(=O)c1c(Br)c2c(n1Cc1ccc(C)cc1)-c1[nH]c(=O)c(S(=O)(=O)c3ccccc3)cc1CC2` [PP008, Ethyl 7-(benzenesulfonyl)-3-bromo-1-[(4-methylphenyl)methyl]-8-oxo-4,5,8,9-tetrahydro-1H-pyrrolo[3,2-h]quinoline-2-carboxylate]: the “effect of combination with VX-809 on F508del-CFTR current” value in test [1] is listed as “synergistic effect”. In addition, the “F508del-CFTR activity (current blocked by inh-172)” value in test [2] (compound 10 μM alone, 24 h incubation) was “significantly increased; also recorded: significant increase in current”. Besides, the “F508del-CFTR activity (current blocked by inh-172) of combination” value in test [2] (compound 10 μM plus VX-809 1 μM, 24 h) was “significantly greater than the sum of the effects of the individual correctors”. In addition, the calcium-dependent chloride secretion entry in test [3] is recorded as “does not modify”.

In the case of `CCOC(=O)c1c(Br)c2c(n1Cc1cccc(C)c1)-c1[nH]c(=O)c(S(=O)(=O)c3ccccc3)cc1CC2` [PP028, Ethyl 3-bromo 1-(3-methylbenzyl)-8-oxo-7-(phenylsulfonyl)-4,5,8,9-tetrahydro-1H-pyrrolo[3,2-h]quinoline-2-carboxylate], the “CFTR activity (QR) in G542X-CFTR cells versus G418 alone” value in test [4] (G418 0.5 mg/ml plus VX-809 1 μM or PP028 10 μM) is on record as “further increased activity”. Moreover, the “comparison of co-treatments with G418 in G542X-CFTR cells” value in test [4] (PP028 10 μM versus VX-809 1 μM, each plus G418) is reported as “significantly more effective than VX-809”.

(Values after patent US12410164B2, “Heterocyclic compounds and medical use thereof” (FONDAZIONE TELETHON, priority 2018, dated 2025).)
